Source: BindingDB's records for patent US20250099442 (Prothena Biosciences, 2025)

Biological target: Dual specificity tyrosine-phosphorylation-regulated kinase 1A (Homo sapiens, UniProt Q13627)
Assay: DYRK1A Inhibition Assay
Description: Assay Procedure1. Add 5 μL enzyme & substrate mixture to each well in Column 2-23 and A24-H24 wells of the 384-well assay plate;2. Add 5 μL 0% Phosphorylation control to A1-H1 and I24-P24 wells of the assay plate;3. Add 5 μL 100% Phosphorylation control to I1-P1 wells of the assay plate;4. Spin the assay plate (1000 rpm, 1 minute @23° C.);5. Incubate enzyme with compounds for 15 minutes at 23° C.;6. Add 5 μL ATP solution to each well of the assay plate;7. Spin the plate (1000 rpm, 1 minute @23° C.);8. Incubate the assay plate for 90 minutes at 23° C.;9. Add 10 μL Development reagent A to each well of the assay plate;10. Centrifuge the plate at 1000 rpm about 15 seconds and seal a film over assay plate. Incubate the assay plate for 30 minutes at 23° C.11. Read assay plates on Envision

Row | IC50 | SMILES
1 | < 0.01 µM | CN1CCC(C#Cc2cc(-c3cn(C4CCOCC4)c4cnccc34)ccn2)CC1 [US20250099442, Compound I.91]
2 | 0.01 to 0.1 µM | CC(C)CN1CCC(CNc2cc(-c3cn(C(C)C)c4cnccc34)ccn2)CC1 [US20250099442, Compound I.6]
3 | 0.1 to 1 µM | Cn1ncc2ccc(-c3cncc(O[C@@H]4Cc5ccccc5[C@@H]4N)c3)cc21 [US20250099442, Compound I.37]
4 | 0.1 to 1 µM | Cc1cc(-c2ccnc(NC(=O)C3CCN(C)CC3)c2)c2ocnc2c1 [US20250099442, Compound I.57]
5 | < 0.01 µM | CC(C)n1cc(-c2ccncc2)c2ccncc21 [US20250099442, Compound I.2]
6 | 0.1 to 1 µM | CN1CCC(C(=O)Nc2cc(-c3cc(Cl)cc4ncccc34)ccn2)CC1 [US20250099442, Compound I.56]
7 | > 1 µM | CCN1CCC(C(=O)Nc2cc(-c3ccc4c(c3)ncn4C(F)F)ccn2)CC1 [US20250099442, Compound I.94]
8 | > 1 µM | CN1CCC(C2CN(c3ncc(-c4ccncc4)c4c3C(=O)NC4)C2)CC1 [US20250099442, Compound I.89]
9 | 0.1 to 1 µM | O=S(=O)(c1ccc(F)cc1)N1CCCC(n2cnc3ccc(-c4ccncc4)cc32)C1 (centres undefined) [US20250099442, Compound I.39]
10 | 0.01 to 0.1 µM | CC(C)CN1CCC(C#Cc2nc3ccc(-c4ccnc(N)c4)nc3n2C2CC2)CC1 [US20250099442, Compound I.99]
11 | 0.01 to 0.1 µM | C[C@@H]1CC(C(=O)Nc2cn3cc(-c4ccncc4)ccc3n2)C[C@H](C)N1C (some centres undefined) [US20250099442, Compound I.66]
12 | 0.01 to 0.1 µM | CC(C)CN1CCC(C#Cc2cc(-c3cn(C4CCOCC4)c4cnccc34)ccn2)CC1 [US20250099442, Compound I.100]
13 | > 1 µM | COCCn1nc2cnccc2c1-c1ccnc(NC(=O)C2CC2)c1 [US20250099442, Compound I.26]
14 | < 0.01 µM | CN1C2CCC1CC(C(=O)Nc1nc3ccc(-c4ccncc4)nc3s1)C2 (centres undefined) [US20250099442, Compound I.69]
15 | < 0.01 µM | CC(C)CN1CCC(C(=O)Nc2cc(-c3cn(C(C)C)c4cnccc34)ccn2)CC1 [US20250099442, Compound I.4]
16 | 0.01 to 0.1 µM | c1cc(-c2c[nH]c3cnccc23)ccn1 [US20250099442, Compound I.1]
17 | < 0.5 µM | CC(=O)Nc1ccc2cnc(NC(=O)C3CCN(C)CC3)cc2c1 [US20250099442, Compound II.22]
18 | 0.01 to 0.1 µM | CC(C)CN1CCC(C(=O)Nc2nccc(-c3cn(C(C)C)c4cnccc34)n2)CC1 [US20250099442, Compound I.8]
19 | 0.01 to 0.1 µM | CC(C)CN1CCC(CNc2cc(-c3c[nH]c4cnccc34)ccn2)CC1 [US20250099442, Compound I.5]
20 | 0.01 to 0.1 µM | Cc1c(C#CC2CCOCC2)nc2ccc(-c3ccncc3)cn12 [US20250099442, Compound I.76]
21 | 0.01 to 0.1 µM | CN1CCC(C(=O)Nc2cc(-c3cc(=O)n(C)c4ccccc34)ccn2)CC1 [US20250099442, Compound I.55]
22 | < 0.5 µM | CCCOc1cc(COC2CCN(C)CC2)nc2[nH]cc(C(F)(F)F)c12 [US20250099442, Compound II.7]
23 | 0.01 to 0.1 µM | Cc1c(-c2ccncc2)cn2cnc(NC(=O)C3[C@H]4CN(C)C[C@@H]34)cc12 (some centres undefined) [US20250099442, Compound I.73]
24 | 0.01 to 0.1 µM | CN1CCC(C(=O)Nc2cc3cc(-c4ccncc4)cn3cn2)CC1 [US20250099442, Compound I.58]
25 | > 1 µM | CS(=O)(=O)Nc1cnc2sc(-c3cccc(O)c3)nc2c1 [US20250099442, Compound I.13]
26 | < 0.01 µM | CN1CCC(C(=O)Nc2ccc3c(-c4ccncc4)c[nH]c3n2)CC1 [US20250099442, Compound I.67]
27 | > 1 µM | c1cncc(-c2cc3c(-c4ccc5c(c4)CCO5)cncc3o2)c1 [US20250099442, Compound I.11]
28 | > 1 µM | c1ccc(Oc2cc(-c3ccc4c(c3)CCO4)ccn2)cc1 [US20250099442, Compound I.10]

Row | SMILES | IC50
29 | CN1CC2CC(C1)C2C(=O)Nc1nc2ccc(-c3ccncc3)cc2s1 (centres undefined) [US20250099442, Compound I.52] | 0.1 to 1 µM
